Test results published in article PMC12774351, “A lignan compound regulates LPS modifications via PmrA/B signaling cascades to potentiate colistin efficacy in vivo” (PLOS Pathogens, 2025).

Biological target: T1, PmrA (Salmonella enterica, UniProt A0A0F6BAF1)
T1 construct: gene basR
Assay: isothermal titration calorimetry
Format: binding

T1 sequence (A0A0F6BAF1 entry or part of it): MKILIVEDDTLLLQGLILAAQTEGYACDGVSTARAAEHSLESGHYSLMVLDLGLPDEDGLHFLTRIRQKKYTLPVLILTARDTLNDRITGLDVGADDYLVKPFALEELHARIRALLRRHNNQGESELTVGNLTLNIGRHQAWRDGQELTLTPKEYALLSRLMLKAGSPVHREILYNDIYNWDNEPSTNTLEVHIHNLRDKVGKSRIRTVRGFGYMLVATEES

Work on `C=CCc1ccc(O)c(-c2cc(CC=C)ccc2O)c1` [magnolol] yielded a Kd of 2000 nM.
